Among the data in BindingDB's records for doi:10.1021/jm960697s (Pfizer, 1997) are IC50 and Ki values, retold here.

Assay [1] deals with Alpha-1B adrenergic receptor (Mesocricetus auratus) (UniProt P18841). The assay can be described thus: Binding affinity was tested on cloned hamster Alpha-1B adrenergic receptor.
Assay [2] addresses T1, 3-oxo-5-alpha-steroid 4-dehydrogenase 1 (Homo sapiens, UniProt P18405).
T1 sequence (P18405 whole entry): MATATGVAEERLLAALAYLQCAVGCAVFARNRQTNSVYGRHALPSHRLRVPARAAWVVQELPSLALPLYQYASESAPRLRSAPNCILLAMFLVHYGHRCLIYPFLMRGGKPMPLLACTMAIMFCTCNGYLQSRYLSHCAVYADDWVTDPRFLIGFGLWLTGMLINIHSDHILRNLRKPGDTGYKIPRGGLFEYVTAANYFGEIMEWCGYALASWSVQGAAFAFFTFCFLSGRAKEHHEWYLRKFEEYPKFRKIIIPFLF
The assay can be described thus: Binding affinity for human 5 alpha reductase 1 isozyme.

Alpha-1B adrenergic receptor (Mesocricetus auratus), sequence (P18841 whole entry, looked up): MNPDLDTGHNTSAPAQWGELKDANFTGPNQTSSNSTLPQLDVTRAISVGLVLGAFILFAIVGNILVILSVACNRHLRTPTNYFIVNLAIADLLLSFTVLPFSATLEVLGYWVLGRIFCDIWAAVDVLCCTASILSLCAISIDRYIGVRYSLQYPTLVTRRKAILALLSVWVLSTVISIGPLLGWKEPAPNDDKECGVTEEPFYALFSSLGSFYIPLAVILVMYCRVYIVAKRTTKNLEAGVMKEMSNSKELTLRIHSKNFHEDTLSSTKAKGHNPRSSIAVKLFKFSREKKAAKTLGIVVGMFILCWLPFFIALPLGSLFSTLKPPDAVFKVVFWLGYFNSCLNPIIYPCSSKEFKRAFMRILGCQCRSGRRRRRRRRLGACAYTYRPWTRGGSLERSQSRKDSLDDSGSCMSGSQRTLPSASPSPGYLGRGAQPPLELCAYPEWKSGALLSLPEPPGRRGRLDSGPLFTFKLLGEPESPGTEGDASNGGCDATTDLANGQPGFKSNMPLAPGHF

The term IC50 denotes the concentration that inhibits the measured activity by half. Higher therefore signals lower potency. On to `COc1ccc(CC2c3cc(OC)c(OC)cc3CCN2c2nc(N)c3cc(OC)c(OC)cc3n2)cc1OC` (stereo not drawn) [2-[1-(3,4-Dimethoxy-benzyl)-6,7-dimethoxy-3,4-dihydro-1H-isoquinolin-2-yl]-6,7-dimethoxy-quinazolin-4-ylamine], for which the IC50 in assay [1] worked out at 206 nM.

The Ki is a dissociation constant, usually derived from enzyme kinetics or from competition with a known ligand. The compound `CC1C(=O)CC[C@@]2(C)C1=NCC1C2CC[C@@]2(C)C1CC[C@@H]2C(=O)Nc1cc(C(F)(F)F)ccc1C(F)(F)F` (stereo partly drawn) [(1S,9aR,11aS)-6,9a,11a-Trimethyl-7-oxo-2,3,3a,3b,4,5,7,8,9,9a,9b,10,11,11a-tetradecahydro-1H-cyclopenta[i]phenanthridine-1-carboxylic acid (2,5-bis-trifluoromethyl-phenyl)-amide] registered a Ki in assay [2] of 0.2 nM.

Compound `C[C@]12CCC(=O)C(Cl)C1=NCC1C2CC[C@@]2(C)C1CC[C@@H]2C(=O)Nc1cc(C(F)(F)F)ccc1C(F)(F)F` (stereo partly drawn) [(1S,9aR,11aS)-6-Chloro-9a,11a-dimethyl-7-oxo-2,3,3a,3b,4,5,7,8,9,9a,9b,10,11,11a-tetradecahydro-1H-cyclopenta[i]phenanthridine-1-carboxylic acid (2,5-bis-trifluoromethyl-phenyl)-amide] came in with a Ki in assay [2] of 0.2 nM.
